Experimental data as given in patent US9168281B2, “Kit for treating a wound” (priority 2011, dated 2015).

Experiments:
Assay in all cases: Phenol Red Dextrose broth growth test of product containing CPC
Assay type in all cases: cell-based
Settings in all cases: 37° C., 24 hours
[1] = tested on: Strep pyogenes
Protocol: (§1) Phenol Red Dextrose broth tubes were prepared and a small loop of an organism cultured in peptone broth for 24 hours at 37° C. was used to inoculate the tubes in duplicate to a series of ten. […] The inoculated tubes were incubated at a temperature of 37° C. for 24 hours and growth of organism assessed compared to an inoculated tube without presence of product.

[2] = tested on: Staph aureus (MRSA)
Protocol: as §1

[3] = tested on: Proteus vulgaris
Protocol: as §1

[4] = tested on: Strep equi
Protocol: as §1

[5] = tested on: Candida albicans
Protocol: as §1

[6] = tested on: Staph aureus (non MRSA)
Protocol: as §1

[7] = tested on: P. aeruginosa
Protocol: as §1

Measured: growth of organism

CCCCCCCCCCCCCCCC[n+]1ccccc1 [CPC, cetyl pyridinium chloride]
n/g: [1]; 0.1 mL CPC (0.004% vol. comp) | [1]; 0.2 mL CPC (0.008% vol. comp) | [1]; 0.3 mL CPC (0.016% vol. comp) | [1]; 0.4 mL CPC (0.032% vol. comp) | [1]; 0.5 mL CPC (0.064% vol. comp) | [1]; 0.6 mL CPC (0.128% vol. comp) | [1]; 0.7 mL CPC (0.256% vol. comp) | [1]; 0.8 mL CPC (0.512% vol. comp) | [1]; 0.9 mL CPC (1.024% vol. comp) | [1]; 1.0 mL CPC (2.048% vol. comp) | [2]; 0.1 mL CPC (0.004% vol. comp) | [2]; 0.2 mL CPC (0.008% vol. comp) | [2]; 0.3 mL CPC (0.016% vol. comp) | [2]; 0.4 mL CPC (0.032% vol. comp) | [2]; 0.5 mL CPC (0.064% vol. comp) | [2]; 0.6 mL CPC (0.128% vol. comp) | [2]; 0.7 mL CPC (0.256% vol. comp) | [2]; 0.8 mL CPC (0.512% vol. comp) | [2]; 0.9 mL CPC (1.024% vol. comp) | [2]; 1.0 mL CPC (2.048% vol. comp) | [3]; 0.1 mL CPC (0.004% vol. comp) | [3]; 0.2 mL CPC (0.008% vol. comp) | [3]; 0.3 mL CPC (0.016% vol. comp) | [3]; 0.4 mL CPC (0.032% vol. comp) | [3]; 0.5 mL CPC (0.064% vol. comp) | [3]; 0.6 mL CPC (0.128% vol. comp) | [3]; 0.7 mL CPC (0.256% vol. comp) | [3]; 0.8 mL CPC (0.512% vol. comp) | [3]; 0.9 mL CPC (1.024% vol. comp) | [3]; 1.0 mL CPC (2.048% vol. comp) | [4]; 0.1 mL CPC (0.004% vol. comp) | [4]; 0.2 mL CPC (0.008% vol. comp) | [4]; 0.3 mL CPC (0.016% vol. comp) | [4]; 0.4 mL CPC (0.032% vol. comp) | [4]; 0.5 mL CPC (0.064% vol. comp) | [4]; 0.6 mL CPC (0.128% vol. comp) | [4]; 0.7 mL CPC (0.256% vol. comp) | [4]; 0.8 mL CPC (0.512% vol. comp) | [4]; 0.9 mL CPC (1.024% vol. comp) | [4]; 1.0 mL CPC (2.048% vol. comp) | [5]; 0.1 mL CPC (0.004% vol. comp) | [5]; 0.2 mL CPC (0.008% vol. comp) | [5]; 0.3 mL CPC (0.016% vol. comp) | [5]; 0.4 mL CPC (0.032% vol. comp) | [5]; 0.5 mL CPC (0.064% vol. comp) | [5]; 0.6 mL CPC (0.128% vol. comp) | [5]; 0.7 mL CPC (0.256% vol. comp) | [5]; 0.8 mL CPC (0.512% vol. comp) | [5]; 0.9 mL CPC (1.024% vol. comp) | [5]; 1.0 mL CPC (2.048% vol. comp) | [6]; 0.1 mL CPC (0.004% vol. comp) | [6]; 0.2 mL CPC (0.008% vol. comp) | [6]; 0.3 mL CPC (0.016% vol. comp) | [6]; 0.4 mL CPC (0.032% vol. comp) | [6]; 0.5 mL CPC (0.064% vol. comp) | [6]; 0.6 mL CPC (0.128% vol. comp) | [6]; 0.7 mL CPC (0.256% vol. comp) | [6]; 0.8 mL CPC (0.512% vol. comp) | [6]; 0.9 mL CPC (1.024% vol. comp) | [6]; 1.0 mL CPC (2.048% vol. comp) | [7]; 0.1 mL CPC (0.004% vol. comp) | [7]; 0.2 mL CPC (0.008% vol. comp) | [7]; 0.3 mL CPC (0.016% vol. comp) | [7]; 0.4 mL CPC (0.032% vol. comp) | [7]; 0.5 mL CPC (0.064% vol. comp) | [7]; 0.6 mL CPC (0.128% vol. comp) | [7]; 0.7 mL CPC (0.256% vol. comp) | [7]; 0.8 mL CPC (0.512% vol. comp) | [7]; 0.9 mL CPC (1.024% vol. comp) | [7]; 1.0 mL CPC (2.048% vol. comp)
